Key:
[1] = Molar enthalpy of transition or fusion; conditions: Crystal; DSC
[2] = molar heat capacity at constant pressure; conditions: 101.33 kPa, Crystal

Cn1cc[n+](CCCCS(=O)(=O)[O-])c1 [4-(1-methyl-1H-imidazolium-3-yl)butane-1-sulfonate]
Conditions | Glass transition temperature [°C] | Normal melting temperature [°C] | molar heat capacity at constant pressure [J/K/mol]
Crystal, DTA | – | 235.83 | –
Glass, Adiabatic calorimetry | 30.46 | – | –
[2], 80.21 K | – | – | 109.32
[2], 82.3 K | – | – | 110.19
[2], 84.23 K | – | – | 111.45
[2], 86.16 K | – | – | 114.23
[2], 88.12 K | – | – | 115.88
[2], 90.06 K | – | – | 117.56
[2], 92.01 K | – | – | 118.29
[2], 93.95 K | – | – | 119.31
[2], 95.89 K | – | – | 120.93
[2], 97.83 K | – | – | 122.2
[2], 99.77 K | – | – | 123.74
[2], 102.48 K | – | – | 124.48
[2], 105.12 K | – | – | 126.89
[2], 107 K | – | – | 127.99
[2], 108.91 K | – | – | 129.52
[2], 110.85 K | – | – | 130.01
[2], 112.81 K | – | – | 131.16
[2], 114.75 K | – | – | 132.61
[2], 116.67 K | – | – | 133.57
[2], 118.61 K | – | – | 135.14
[2], 120.58 K | – | – | 137.07
[2], 122.53 K | – | – | 137.67
[2], 124.46 K | – | – | 138.87
[2], 126.38 K | – | – | 139.75
[2], 128.32 K | – | – | 140.75
[2], 130.3 K | – | – | 142.4
[2], 132.25 K | – | – | 144.69
[2], 134.2 K | – | – | 145.28
[2], 136.13 K | – | – | 145.45
[2], 138.04 K | – | – | 146.27
[2], 139.98 K | – | – | 147.32
[2], 141.94 K | – | – | 148.6
[2], 143.9 K | – | – | 150.42
[2], 145.84 K | – | – | 151.09
[2], 147.76 K | – | – | 152.25
[2], 149.67 K | – | – | 153.38
[2], 152.19 K | – | – | 153.72
[2], 154.71 K | – | – | 155.47
[2], 156.63 K | – | – | 157
[2], 158.54 K | – | – | 158.94
[2], 160.5 K | – | – | 159.74
[2], 162.51 K | – | – | 160.66
[2], 164.51 K | – | – | 162.3
[2], 166.5 K | – | – | 163.42
[2], 168.48 K | – | – | 163.25
[2], 170.44 K | – | – | 164.22
[2], 172.4 K | – | – | 166.07
[2], 174.34 K | – | – | 169.35
[2], 176.29 K | – | – | 169.43
[2], 178.22 K | – | – | 169.86
[2], 180.14 K | – | – | 172.46
[2], 182.06 K | – | – | 172.94
[2], 183.96 K | – | – | 173.45
[2], 185.91 K | – | – | 174.79
[2], 187.92 K | – | – | 176.2
[2], 189.92 K | – | – | 177.8
[2], 191.9 K | – | – | 179.25
[2], 193.89 K | – | – | 180.62
[2], 195.86 K | – | – | 181.69
[2], 197.82 K | – | – | 183.02
[2], 199.78 K | – | – | 184.59
[2], 202.16 K | – | – | 186.03
[2], 204.55 K | – | – | 188.92
[2], 206.52 K | – | – | 189.41
[2], 208.48 K | – | – | 190.86
[2], 210.43 K | – | – | 192.56
[2], 212.37 K | – | – | 193.16
[2], 214.31 K | – | – | 194.31
[2], 216.23 K | – | – | 195.92
[2], 218.15 K | – | – | 196.94
[2], 220.06 K | – | – | 198.36
[2], 221.95 K | – | – | 199.16
[2], 223.84 K | – | – | 200.4
[2], 225.81 K | – | – | 201.12
[2], 227.76 K | – | – | 203.49
[2], 229.69 K | – | – | 205.7
[2], 231.68 K | – | – | 206.8
[2], 233.67 K | – | – | 207.23
[2], 235.68 K | – | – | 210
[2], 237.67 K | – | – | 211.8
[2], 239.66 K | – | – | 212.72
[2], 242.01 K | – | – | 212.87
[2], 244.29 K | – | – | 213.82
[2], 246.26 K | – | – | 215.02
[2], 248.23 K | – | – | 216.05
[2], 250.19 K | – | – | 217.52
[2], 252.24 K | – | – | 219.72
[2], 254.3 K | – | – | 221.07
[2], 256.34 K | – | – | 222.28
[2], 258.38 K | – | – | 223.16
[2], 260.41 K | – | – | 224.41
[2], 262.43 K | – | – | 226.87
[2], 264.45 K | – | – | 228.3
[2], 266.45 K | – | – | 230.63
[2], 268.46 K | – | – | 233.04
[2], 270.45 K | – | – | 233.66
[2], 272.44 K | – | – | 235.64
[2], 274.42 K | – | – | 237.81
[2], 276.4 K | – | – | 239.51
[2], 278.38 K | – | – | 241.25
[2], 280.34 K | – | – | 243.42
[2], 282.3 K | – | – | 245.29
[2], 284.25 K | – | – | 246.94
[2], 286.19 K | – | – | 249.67
[2], 288.12 K | – | – | 252.87
[2], 290.04 K | – | – | 253.95
[2], 291.95 K | – | – | 254.73
[2], 293.85 K | – | – | 255.69
[2], 295.85 K | – | – | 257.59
[2], 297.85 K | – | – | 258.49
[2], 299.75 K | – | – | 260.96
[2], 301.74 K | – | – | 261.24
[2], 303.72 K | – | – | 264.66
[2], 305.71 K | – | – | 264.36
[2], 307.78 K | – | – | 264.22
[2], 309.84 K | – | – | 267.13
[2], 311.9 K | – | – | 269.55
[2], 313.95 K | – | – | 271.31
[2], 315.99 K | – | – | 273.57
[2], 318.03 K | – | – | 274.9
[2], 320.06 K | – | – | 276.18
[2], 322.09 K | – | – | 278.14
[2], 324.11 K | – | – | 279.41
[2], 326.12 K | – | – | 281.91
[2], 328.13 K | – | – | 283.31
[2], 330.13 K | – | – | 285.02
[2], 332.13 K | – | – | 286.68
[2], 334.12 K | – | – | 289.14
[2], 336.11 K | – | – | 290.13
[2], 338.09 K | – | – | 291.64
[2], 340.07 K | – | – | 293.16
[2], 342.04 K | – | – | 294.72
[2], 344 K | – | – | 297.82
[2], 345.96 K | – | – | 300.22
[2], 347.92 K | – | – | 301.67
[2], 349.87 K | – | – | 302.61
[2], 351.81 K | – | – | 304.94
[2], 353.75 K | – | – | 306.16
[2], 355.69 K | – | – | 308.54
[2], 357.62 K | – | – | 308.82
[2], 359.54 K | – | – | 310.24
[2], 361.47 K | – | – | 312.31
[2], 363.48 K | – | – | 313.02
[2], 365.48 K | – | – | 315.16
[2], 367.47 K | – | – | 315.19
[2], 369.54 K | – | – | 318.14
[2], 371.62 K | – | – | 320.13
[2], 373.68 K | – | – | 321.14
[2], 375.73 K | – | – | 323.95
[2], 377.79 K | – | – | 324.83
[2], 379.83 K | – | – | 325.26
[2], 381.87 K | – | – | 327.6
[2], 383.9 K | – | – | 332.07
[2], 385.94 K | – | – | 334
[2], 387.96 K | – | – | 335.27
[2], 389.98 K | – | – | 335.42
[2], 391.98 K | – | – | 337.63
[2], 393.99 K | – | – | 338.39
[2], 395.97 K | – | – | 341.92
[2], 397.96 K | – | – | 344.53

Conditions | Molar enthalpy of transition or fusion [kcal/mol]
[1] | 6.01

Reference: the NIST ThermoML archive (doi:10.1021/je100423n)
